Laboratory results as given in US20230077983A1, “METHODS OF TREATING AND PREVENTING ENGRAFTMENT ARRHYTHMIAS” (UNIVERSITY OF WASHINGTON, priority 2020, published 2023).
Read-outs that look alike come from different tables or passages of the source. Marks after values point to notes of the source that are not given here.

Columns and labels:
[1] = test system: engraftment arrhythmia (EA); conditions: for Result: HR effect / Result: response on EA burden / Result: cardioversion: Table 1, swine; for Effect: HR effect / Effect: response on EA burden / Effect: cardioversion: Table 2, Phase 1; for effect on heart rate (agent alone) / effect on rhythm: cardioversion / sinus rhythm / arrhythmia burden (agent alone): running text and figure legend, pigs in EA
Procedure: A number of anti-arrhythmic therapies were tested to determine their efficacy in treating and preventing engraftment arrhythmias.
The objective of this study was to identify a pharmacological regimen to attenuate arrhythmias following cardiac remuscularization therapy. This study was designed in two phases: the first, to observe the natural history of EA and screen various antiarrhythmic agents for efficacy and the second, test for efficacy (FIG. 16). All subjects were 30-40 kg castrated male Yucatan minipigs between 6-13 months of age (S&S Farms). In Phase 1, nine subjects underwent cardiac remuscularization therapy with 500×10^6 hESC-CM delivered by direct surgical transepicardial injections or later, by percutaneous transendocardial injections. The first four subjects (one non-infarcted and three infarcted) were followed to learn the natural history of EA and establish clinical endpoints and parameters for the Phase 2 drug trial. The subsequent five subjects underwent systematic dosing with antiarrhythmic agents with continuous electrocardiography (ECG) monitoring to determine effect on rhythm and rate (Table 2).
In addition, the funny current/HCN4 channel antagonist, ivabradine, was tested (Tables 1 and 2). This series was not meant to be definitive but rather to rapidly identify candidate agents. Animals were brought into the laboratory while in EA, anesthetized, and the effects of short-term intravenous infusion of anti-arrhythmic agents were studied.
Subjects were administered multiple trials antiarrhythmics and observed for acute response by continuous ECG monitoring. Intravenous agents were delivered as a bolus dose over 2 minutes. Oral agents were administrated by direct observation in a minimum of apples, apple sauce or pumpkin puree with daily feeding and dosed daily for dose escalation. A washout period of at least three days was provided between agents. Amiodarone was administered as the last agent for testing given concern for prolonged half-life and elimination kinetics. All agents were tested in at least two subjects.

[2] = test system: engraftment arrhythmia (EA); test: Antiarrhythmic trial in non-human primate engraftment model; format: in vivo; conditions: Table 1, concentration not given
[3] = Amiodarone drug monitoring by liquid chromatography-mass spectrometry after discontinuation of oral therapy; format: in vivo, pigs; conditions: within 1 week of discontinuation of chronic oral amiodarone; pig
Procedure: Amiodarone levels were measured in plasma by a liquid chromatography-mass spectrometry assay. Chronic oral amiodarone in six pigs was discontinued after achieving electrical maturation and stabilization of engraftment arrythmia. Serum concentrations of amiodarone were assayed weekly, including 3-4 weeks after discontinuation.
A novel liquid chromatography—mass spectrometry assay was established for amiodarone to monitor steady state serum levels in the porcine model and guide oral dosing to ensure efficacy and avoid dose-related toxicity. A target serum level of 1.5-4.0 μg/ml was extrapolated from prior human pharmacokinetic studies (16,17). Elimination kinetics after discontinuation of oral amiodarone therapy were also studied by obtaining weekly trough concentrations in 6 pigs (subjects 6, 7, 8, 13, 14, 16) (FIG. 18).

SMILES: CCCNCC(O)COc1ccccc1C(=O)CCc1ccccc1 (centres unmarked) [Propafenone]
- Effect: adverse events (footnotes * and **) ([1]; pig, in vivo): *Severe nausea/emesis observed at therapeutic doses, limiting clinical utility
- Result: adverse events (* remarks) ([1]; pig, in vivo): * Dose limited emesis

SMILES: COc1cc2c(cc1OC)CC(=O)N(CCCN(C)C[C@H]1Cc3cc(OC)c(OC)cc31)CC2 [Ivabradine]
- Result: HR effect [1]: Robust dose-dependent HR
- Effect: HR effect ([1]; pig): Robust dose-dependent HR effect (PO
- Effect: response on EA burden ([1]; pig): only)**, no response on EA burden
- Effect: adverse events (footnotes * and **) ([1]; pig, in vivo): **Severe bradycardia
- effect on heart rate (agent alone) ([1]; listed as ivabradine): robust dose-dependent effects on heart rate
- effect on rhythm: cardioversion / sinus rhythm / arrhythmia burden (agent alone) ([1]; listed as ivabradine): did not restore sinus rhythm

SMILES: COCCc1ccc(OCC(O)CNC(C)C)cc1 (centres unmarked) [Metoprolol]
- effect in the antiarrhythmic screen (heart rate or arrhythmia burden) [1]: no significant effect
- Result: HR effect [1]: Moderate HR effect (IV only)
- Result: response on EA burden [1]: no
- Effect: HR effect ([1]; pig): Moderate HR effect (IV only)
- Effect: response on EA burden ([1]; pig): no

SMILES: O=C1CN(/N=C/c2ccc(-c3ccc([N+](=O)[O-])cc3)o2)C(O)=N1 [Dantrolene]
- Result: HR effect [1]: No response on HR or EA burden
- Result: response on EA burden [1]: No response on HR or EA burden

SMILES: CCN(CC)CC(=O)Nc1c(C)cccc1C [Lidocaine]
- effect in the antiarrhythmic screen (heart rate or arrhythmia burden) [1]: no significant effect
- Result: HR effect [1]: Modest HR effect
- Result: cardioversion [1]: rare
- Effect: HR effect ([1]; pig): Modest HR effect
- Effect: cardioversion ([1]; pig): rare

SMILES: CC(C)NCC(O)c1ccc(NS(C)(=O)=O)cc1 (centres unmarked) [Sotalol]
- effect in the antiarrhythmic screen (heart rate or arrhythmia burden) [1]: no significant effect
- Result: HR effect [1]: No response on HR or EA burden
- Result: response on EA burden [1]: No response on HR or EA burden
- Effect: HR effect ([1]; pig): No response on HR or EA burden
- Effect: response on EA burden ([1]; pig): No response on HR or EA burden

SMILES: COc1ccc(CCN(C)CCCC(C#N)(c2ccc(OC)c(OC)c2)C(C)C)cc1OC (centres unmarked) [Verapamil]
- Result [2]: Sudden cardiac death

SMILES: O=C(NCC1CCCCN1)c1cc(OCC(F)(F)F)ccc1OCC(F)(F)F (centres unmarked) [Flecainide]
- effect in the antiarrhythmic screen (heart rate or arrhythmia burden) [1]: no significant effect
- Result: HR effect [1]: No response on HR or EA burden
- Result: response on EA burden [1]: No response on HR or EA burden
- Effect: HR effect ([1]; pig): No response on HR or EA burden
- Effect: response on EA burden ([1]; pig): No response on HR or EA burden

SMILES: CCCCc1oc2ccccc2c1C(=O)c1cc(I)c(OCCN(CC)CC)c(I)c1 [Amiodarone]
- Average serum amiodarone [3]: 0.42 ± 0.12 µg/mL
- Result: HR effect [1]: Modest HR effect
- Result: cardioversion [1]: frequent
- Effect: HR effect ([1]; pig): Modest HR effect
- Effect: cardioversion ([1]; pig): frequent
- effect on heart rate (agent alone) [1]: moderate effect on reducing heart rate
- effect on rhythm: cardioversion / sinus rhythm / arrhythmia burden (agent alone) [1]: effective as an intravenous bolus to cardiovert
